Results: the supplement of paper PMC8671470

Legend:
Conditions in all cases: 72 h
[1] = test system: MV4-11
How it was run: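 For the IC50, dose–response curves were fitted with a log-logistic model. The data came from fifteen myeloid leukaemia cell lines grown in RPMI 1640 at densities in the linear growth range and incubated in 384-well plates for 72 h at 37 °C under 5% CO2. Doses were five tenfold steps from 1 to 10,000 nM in duplicate, and luminescent ATP viability was normalised to vehicle and to a positive control at 10 µM before four-parameter fitting.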

[2] = test system: HL-60; experiment: area under dose-response curve (viability, 1 nM-10 uM) (fraction (0-1)); higher = more sensitive
How it was run: (§1)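 A rescreen of the full library used HL-60 cells in RPMI 1640 with 10% FBS on 384-well plates, run in duplicate at five tenfold concentrations (1–10,000 nM). Each screen included DMSO or 100 nM of one of three metabolic inhibitors and ran 72 h at 37 °C, 5% CO2. CellTiter-Glo viability was scaled between DMSO and 10 μM proteasome-inhibitor wells. Any area under the curve comes from four-parameter log-logistic fits with drc and PharmacoGx.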

[3] = test system: HL-60; experiment: cell viability (% survival relative to DMSO control); higher = less cytotoxic
How it was run: as §1

[4] = test system: MV4-11; experiment: cell viability (% survival relative to DMSO control, bortezomib = 0%); higher = less cytotoxic
How it was run: (§2)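 In 384-well plates pre-printed with compounds at 1, 10, 100, 1000 or 10000 nM, duplicate wells received cells from 10 AML and 5 CML lines at densities within the linear growth range. The plates stayed at 37 °C with 5% CO2 for 72 h before CellTiter-Glo luminescence was recorded. Each entry is averaged percent survival. Scaling placed vehicle at 100% and a 10 µM positive control at 0%.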

[5] = test system: KU-812; experiment: as above
How it was run: as §2

[6] = test system: LAMA-84; experiment: as above
How it was run: as §2

[7] = test system: NOMO-1; experiment: as above
How it was run: as §2

[8] = test system: BV-173; experiment: as above
How it was run: as §2

[9] = test system: THP-1; experiment: as above
How it was run: as §2

[10] = test system: SHI-1; experiment: as above
How it was run: as §2

[11] = test system: MOLM-13; experiment: as above
How it was run: as §2

[12] = test system: K-562; experiment: as above
How it was run: as §2

[13] = test system: KG-1; experiment: as above
How it was run: as §2

[14] = test system: ML-2; experiment: as above
How it was run: as §2

[15] = test system: HL-60; experiment: as above
How it was run: as §2

[16] = test system: Mono-Mac-6; experiment: as above
How it was run: as §2

[17] = test system: KCL-22; experiment: as above
How it was run: as §2

[18] = test system: HEL; experiment: as above
How it was run: as §2

O=NN(CCCl)C(=O)NCCCl [Carmustine]
Conditions	IC50 (cell viability) [µM]
[1]	> 10

Conditions	area under dose-response curve, co-treatment: AZD3965 100 nM	area under dose-response curve, co-treatment: DMSO vehicle	area under dose-response curve, co-treatment: GSK2194069 100 nM	area under dose-response curve, co-treatment: pictilisib 100 nM	cell viability, 1 nM [%]	cell viability, 10 nM [%]	cell viability, 100 nM [%]	cell viability, 1000 nM [%]	cell viability, 10000 nM [%]
[2]	< 0.0301	< 0.0301	< 0.0301	< 0.0301	–	–	–	–	–
[4]	–	–	–	–	96.3	104	103	106	83.4
[5]	–	–	–	–	99.4	118	114	98.5	97.1
[6]	–	–	–	–	98.7	93.1	105	92.9	99.3
[7]	–	–	–	–	102	103	104	100	99
[8]	–	–	–	–	102	120	105	95.3	78.5
[9]	–	–	–	–	97.6	107	102	101	98.9
[10]	–	–	–	–	87	109	97.6	128	104
[11]	–	–	–	–	97.6	106	98.2	106	101
[12]	–	–	–	–	95.1	123	75.8	111	101
[13]	–	–	–	–	110	114	108	102	97.5
[14]	–	–	–	–	104	122	106	96	106
[15]	–	–	–	–	98.8	101	98.1	97.8	101
[16]	–	–	–	–	106	97.8	99.8	109	117
[17]	–	–	–	–	83.1	122	104	88.8	97.4
[18]	–	–	–	–	98.3	114	111	103	101

cell viability [%], [3]
Conditions	0.001 µM	0.01 µM	0.1 µM	1 µM	10 µM
co-treatment: AZD3965 100 nM	95.3	95	99.5	98.8	100.8
co-treatment: DMSO vehicle	96.8	102	100.48	97.8	105
co-treatment: GSK2194069 100 nM	89.9	97.4	98.9	97.5	104
co-treatment: pictilisib 100 nM	86.1	83.1	110	93.7	118

NS(=O)(=O)c1ccc(NC(=O)Cc2ccccc2)cc1 [4-(2-Phenylacetamido)Benzenesulfonamide]
Conditions	IC50 (cell viability) [µM]
[1]	> 10

Conditions	area under dose-response curve, co-treatment: AZD3965 100 nM	area under dose-response curve, co-treatment: DMSO vehicle	area under dose-response curve, co-treatment: GSK2194069 100 nM	area under dose-response curve, co-treatment: pictilisib 100 nM	cell viability, 1 nM [%]	cell viability, 10 nM [%]	cell viability, 100 nM [%]	cell viability, 1000 nM [%]	cell viability, 10000 nM [%]
[2]	< 0.0301	< 0.0301	< 0.0301	< 0.0301	–	–	–	–	–
[4]	–	–	–	–	108	109	95.7	91.3	86.6
[5]	–	–	–	–	92.1	99.1	105	105	107
[6]	–	–	–	–	97.4	104	110	97.4	102
[7]	–	–	–	–	97.5	102	108	109	107
[8]	–	–	–	–	118	94.8	105	114	92.9
[9]	–	–	–	–	89.8	105	109	99	87.8
[10]	–	–	–	–	106	105	91.2	102	102
[11]	–	–	–	–	95.7	99.9	81	84.6	81.3
[12]	–	–	–	–	100	99.4	103	112	97.2
[13]	–	–	–	–	99	106	85.8	90	103
[14]	–	–	–	–	98.7	102	95.6	108	102
[15]	–	–	–	–	162	97.6	115	106	89.7
[16]	–	–	–	–	87.8	108	95.9	102	96.9
[17]	–	–	–	–	99.8	102	83.9	108	93.9
[18]	–	–	–	–	106	108	78.6	99	106

cell viability [%], [3]
Conditions	0.001 µM	0.01 µM	0.1 µM	1 µM	10 µM
co-treatment: AZD3965 100 nM	97.2	100	99.29	101	99.6
co-treatment: DMSO vehicle	92.5	94.4	100	100	98.28
co-treatment: GSK2194069 100 nM	104	99.5	99.14	99.4	103
co-treatment: pictilisib 100 nM	101	85.2	94	97.6	92.9
